ChEMBL document CHEMBL1201861, “Genomics of Drug Sensitity in Cancer screening data, Wellcome Trust Sanger Institute”

Legend:
Assay in all cases: cells
[1] = tested on: COLO-320-HSR; assay type: functional, cell-based, Homo sapiens; settings: Homo sapiens, COLO-320-HSR;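 also: growth inhibition of COLO-320-HSR cells, determined with a cell viability assay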
Description: SANGER: Inhibition of human COLO-320-HSR cell growth in a cell viability assay.

[2] = tested on: COLO-684; assay type: functional, cell-based, Homo sapiens; settings: Homo sapiens, COLO-684
Description: SANGER: Inhibition of human COLO-684 cell growth in a cell viability assay.

[3] = tested on: TE-8; assay type: functional, cell-based, Homo sapiens; settings: Homo sapiens, TE-8;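 also: growth inhibition of TE-8 cells, measured with a cell viability readout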
Description: SANGER: Inhibition of human TE-8 cell growth in a cell viability assay.

[4] = tested on: NCI-H1770; assay type: functional, cell-based, Homo sapiens; settings: Homo sapiens, NCI-H1770;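 also: growth inhibition of NCI-H1770 cells determined with a viability readout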
Description: SANGER: Inhibition of human NCI-H1770 cell growth in a cell viability assay.

[5] = tested on: DOHH-2; assay type: functional, cell-based, Homo sapiens; settings: Homo sapiens, DOHH-2;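 also: growth inhibition of human DOHH-2 cells, read out with a cell viability assay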
Description: SANGER: Inhibition of human DOHH-2 cell growth in a cell viability assay.

[6] = tested on: NCI-N87; assay type: functional, cell-based; settings: Homo sapiens;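 also: growth inhibition of human NCI-N87 cells, read out with a cell viability assay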
Description: SANGER: Inhibition of human NCI-N87 cell growth in a cell viability assay.

[7] = tested on: LXF-289 cell line; assay type: functional, cell-based; settings: Homo sapiens
Description: SANGER: Inhibition of human LXF-289 cell growth in a cell viability assay.

`CO[C@@H]1[C@H](N(C)C(=O)c2ccccc2)C[C@H]2O[C@]1(C)n1c3ccccc3c3c4c(c5c6ccccc6n2c5c31)C(=O)NC4` [MIDOSTAURIN] was tested, and the IC50 [1] was greater than 0.512 µM, the IC50 [2] was greater than 0.512 µM and the IC50 [3] was greater than 0.512 µM. The IC50 [4] was greater than 0.512 µM, the IC50 [5] was greater than 0.512 µM and the IC50 [6] was greater than 0.512 µM. It also gave an IC50 [7] of 0.33 µM.
